Experiments:
[1] = test system: barnyardgrass (Ec); experiment: Test Example 1: herbicidal effects by paddy field soil treatment; format: in vivo; conditions: 100 g of the active ingredient per 10 ares, 21st day after the application, index 0-5 of Table 47;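 also: grade of growth control; 5 = at least 90%; 4 = 70 to 90%; 3 = 50 to 70%; 2 = 30 to 50%; 1 = 10 to 30%; 0 = under 10%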
How it was run: (§1)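 Scoring of herbicidal effect came 21 days after application of 100 g active ingredient per 10 ares to flooded (3 cm) paddy-soil pots sown with barnyardgrass, monochoria and bulrush, kept in a greenhouse.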

[2] = test system: bulrush (Sc); experiment: as above; format: in vivo; conditions: 100 g of the active ingredient per 10 ares, 21st day after the application, index 0-5 of Table 47;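 also: grade of growth control; 5 = at least 90%; 4 = 70 to 90%; 3 = 50 to 70%; 2 = 30 to 50%; 1 = 10 to 30%; 0 = under 10%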
How it was run: as §1

[3] = test system: monochoria (Mo); experiment: as above; format: in vivo; conditions: 100 g of the active ingredient per 10 ares, 21st day after the application, index 0-5 of Table 47;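 also: grade of growth control; 5 = at least 90%; 4 = 70 to 90%; 3 = 50 to 70%; 2 = 30 to 50%; 1 = 10 to 30%; 0 = under 10%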
How it was run: as §1

[4] = test system: Digitaria ciliaris (Di); experiment: Test Example 2: herbicidal effects by upland field soil treatment; format: in vivo; conditions: 100 g of the active ingredient per 10 ares, evaluated on the 21st day after application;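 also: grade of growth control; 5 = at least 90%; 4 = 70 to 90%; 3 = 50 to 70%; 2 = 30 to 50%; 1 = 10 to 30%; 0 = under 10%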
Source text: (§2) (Test on Herbicidal Effects by Upland Field Soil Treatment)

[5] = test system: barnyardgrass (Ec); experiment: as above; format: in vivo; conditions: 100 g of the active ingredient per 10 ares, evaluated on the 21st day after application
Source text: as §2

[6] = test system: common lambsquarters (Ch); experiment: as above; format: in vivo; conditions: 100 g of the active ingredient per 10 ares, evaluated on the 21st day after application
Source text: as §2

[7] = test system: pale smartweed (Po); experiment: as above; format: in vivo; conditions: 100 g of the active ingredient per 10 ares, evaluated on the 21st day after application
Source text: as §2

[8] = test system: rice flatsedge (Ci); experiment: as above; format: in vivo; conditions: 100 g of the active ingredient per 10 ares, evaluated on the 21st day after application
Source text: as §2

[9] = test system: slender amaranth (Am); experiment: as above; format: in vivo; conditions: 100 g of the active ingredient per 10 ares, evaluated on the 21st day after application
Source text: as §2

[10] = test system: corn (Ze); experiment: Test Example 11: crop plant selectivity by upland field foliage treatment (corn), phytotoxicity; conditions: upland field foliage treatment, dose 1.6 g ai/10a, 14th day after treatment
How it was run: (§3)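 Corn with pale smartweed, slender amaranth, common lambsquarters and China jute sown in sand-filled pots and grown 2 weeks in a greenhouse before foliage treatment. Herbicidal effect and crop phytotoxicity scored on day 14 after treatment against a rating standard.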

[11] = test system: China jute (Ab); experiment: Test Example 11: crop plant selectivity by upland field foliage treatment (corn), herbicidal effects; format: in vivo; parameters: scale not given here; conditions: upland field foliage treatment (corn test), dose 1.6 g ai/10a, 14th day after treatment
How it was run: as §3

[12] = test system: common lambsquarters (Ch); experiment: as above; format: in vivo; parameters: scale not given here; conditions: upland field foliage treatment (corn test), dose 1.6 g ai/10a, 14th day after treatment
How it was run: as §3

[13] = test system: pale smartweed (Po); experiment: as above; format: in vivo; parameters: scale not given here; conditions: upland field foliage treatment (corn test), dose 1.6 g ai/10a, 14th day after treatment
How it was run: as §3

[14] = test system: slender amaranth (Am); experiment: as above; format: in vivo; parameters: scale not given here; conditions: upland field foliage treatment (corn test), dose 1.6 g ai/10a, 14th day after treatment
How it was run: as §3

[15] = test system: Diaitaria ciliaris (Di); experiment: Test Example 3: herbicidal effects by upland field foliage treatment; format: in vivo; parameters: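 grade of growth control; 5 = at least 90%; 4 = 70 to 90%; 3 = 50 to 70%; 2 = 30 to 50%; 1 = 10 to 30%; 0 = under 10%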; conditions: 100 g active ingredient per 10 ares, evaluated 14th day after treatment
How it was run: (§4)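 Greenhouse test, upland conditions: seeds sown in sand pots of 120 cm^2 area and overlaid with soil; 2 weeks growth; leaves treated; herbicidal injury graded on day 14 after treatment by fixed standards.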

[16] = test system: barnyardgrass (Ec); experiment: as above; format: in vivo; parameters: scale not given here; conditions: 100 g active ingredient per 10 ares, evaluated 14th day after treatment
How it was run: as §4

[17] = test system: common lambsquarters (Ch); experiment: as above; format: in vivo; parameters: scale not given here; conditions: 100 g active ingredient per 10 ares, evaluated 14th day after treatment
How it was run: as §4

[18] = test system: pale smartweed (Po); experiment: as above; format: in vivo; parameters: scale not given here; conditions: 100 g active ingredient per 10 ares, evaluated 14th day after treatment
How it was run: as §4

[19] = test system: rice flatsedge (Ci); experiment: as above; format: in vivo; parameters: scale not given here; conditions: 100 g active ingredient per 10 ares, evaluated 14th day after treatment
How it was run: as §4

[20] = test system: slender amaranth (Am); experiment: as above; format: in vivo; parameters: scale not given here; conditions: 100 g active ingredient per 10 ares, evaluated 14th day after treatment
How it was run: as §4

[21] = test system: wheat (Tr); experiment: Test Example 9: crop plant selectivity by upland field foliage treatment (wheat), phytotoxicity; conditions: dose 1.6 g ai/10a, 14th day after treatment
How it was run: (§5)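 Read-out: weed control and wheat injury, rated by a defined scoring standard 14 days after foliar application.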

[22] = test system: China jute (Ab); experiment: Test Example 9: crop plant selectivity by upland field foliage treatment (wheat), herbicidal effects; format: in vivo; parameters: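 grade of growth control; 5 = at least 90%; 4 = 70 to 90%; 3 = 50 to 70%; 2 = 30 to 50%; 1 = 10 to 30%; 0 = under 10%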; conditions: dose 1.6 g ai/10a, 14th day after treatment
How it was run: as §5

[23] = test system: common lambsquarters (Ch); experiment: as above; format: in vivo; parameters: scale not given here; conditions: dose 1.6 g ai/10a, 14th day after treatment
How it was run: as §5

[24] = test system: pale smartweed (Po); experiment: as above; format: in vivo; parameters: scale not given here; conditions: dose 1.6 g ai/10a, 14th day after treatment
How it was run: as §5

[25] = test system: slender amaranth (Am); experiment: as above; format: in vivo; parameters: scale not given here; conditions: dose 1.6 g ai/10a, 14th day after treatment
How it was run: as §5

## Cn1c(C(F)(F)F)ccc(-c2c(F)cc(Cl)c3oc(C(=O)O)cc23)c1=O [Compound No. 4-26, 3-(2-carboxy-7-chloro-5-fluorobenzofuran-4-yl)-1-methyl-6-trifluoromethyl-2-(1H)-pyridone]
[1]
  Herbicidal effects Ec: 5
[2]
  Herbicidal effects Sc: 5
[3]
  Herbicidal effects Mo: 5
[4]
  Herbicidal effects Di: 5
[5]
  Herbicidal effects Ec: 5
[6]
  Herbicidal effects Ch: 5
[7]
  Herbicidal effects Po: 5
[8]
  Herbicidal effects Ci: 5
[9]
  Herbicidal effects Am: 5
[10]
  Phytotoxicity Ze: 1
[11]
  Herbicidal effects Ab: 5
[12]
  Herbicidal effects Ch: 5
[13]
  Herbicidal effects Po: 5
[14]
  Herbicidal effects Am: 5
other
  melting point: 233 to 235 °C

## Cn1c(C(F)(F)F)ccc(-c2c(F)cc(Cl)c3oc(C(Br)Br)cc23)c1=O [Compound No. 4-27, 3-(7-chloro-2-dibromomethyl-5-fluorobenzofuran-4-yl)-1-methyl-6-trifluoromethyl-2-(1H)-pyridone]
[1]
  Herbicidal effects Ec: 5
[2]
  Herbicidal effects Sc: 5
[3]
  Herbicidal effects Mo: 5
[4]
  Herbicidal effects Di: 5
[5]
  Herbicidal effects Ec: 4
[6]
  Herbicidal effects Ch: 5
[7]
  Herbicidal effects Po: 5
[8]
  Herbicidal effects Ci: 5
[9]
  Herbicidal effects Am: 5
[15]
  Herbicidal effects Di: 5
[16]
  Herbicidal effects Ec: 4
[17]
  Herbicidal effects Ch: 5
[18]
  Herbicidal effects Po: 5
[19]
  Herbicidal effects Ci: 5
[20]
  Herbicidal effects Am: 5
[21]
  Phytotoxicity Tr: 2
[22]
  Herbicidal effects Ab: 5
[23]
  Herbicidal effects Ch: 5
[24]
  Herbicidal effects Po: 5
[25]
  Herbicidal effects Am: 5
[10]
  Phytotoxicity Ze: 2
[11]
  Herbicidal effects Ab: 5
[12]
  Herbicidal effects Ch: 5
[13]
  Herbicidal effects Po: 5
[14]
  Herbicidal effects Am: 5
other
  melting point: 107 to 109 °C

Source: patent US6472348B1, “Pyridone derivatives and herbicides” (Kumiai Chemical Industry Co., Ltd., priority 1996, dated 2002)
